From patent publication US20240252651A1, “METHOD OF DELIVERING NUCLEIC ACIDS INTO CELLS” (GUANGZHOU LIDE BIOMEDICINE TECHNOLOGY CO., LTD., priority 2021, published 2024)
Entries after “also recorded” stand apart in the source; their conditions may differ.

Experiments:
Hela cells [1] = experiment: Transfection of GFP-expressing plasmid DNA in Hela cells (flow cytometer); type: cell-based, human; conditions: plasmid DNA 0.5 μg/well, material 0.25 to 8 μg/well (dosages per FIG. 4), 24 h
Experimental: In this experiment, with GFP-expressing plasmid DNA as a reporter gene, a gene transfection efficiency of a cationic lipid analog material in Hela cells was detected. A specific method was as follows:
Hela cells were inoculated in a 24-well plate and cultured in an incubator for 12 h; each of different cationic lipid analog materials (0.25 μg/well to 8 μg/well) was mixed with GFP-expressing plasmid DNA (0.5 μg/well) in 40 μL of a sodium acetate buffer (25 mM, pH 5.2), and resulting mixtures each were allowed to stand for 10 min and then diluted with 460 μL of an Opti-MEM medium to obtain plasmid DNA-loaded cationic lipid analog complex particle solutions; a medium for the Hela cells in the plate was removed, then the HeLa cells were washed once with PBS, and the complex particle solutions were added; and the cells were cultured for 24 h, and then a plasmid DNA transfection efficiency in cells was analyzed by a flow cytometer. A commercial gene transfection reagent Lipofectamine 2000 was adopted as a positive control.

Hela cells [2] = experiment: Transfection of luciferase-expressing plasmid DNA in HeLa cells (luciferase expression); type: cell-based, human; conditions: plasmid DNA 0.5 μg, 24 h, luciferase expression level, FIG. 5
Experimental: In this example, with luciferase-expressing plasmid DNA as a reporter gene, a gene transfection efficiency of a cationic lipid analog material in HeLa cells was detected. A specific operation method was as follows: Hela cells were inoculated in a 96-well plate and cultured in an incubator for 12 h; each of different cationic lipid analog materials was mixed with luciferase-expressing plasmid DNA (0.5 μg) in 40 μL of a sodium acetate buffer (25 mM, pH 5.2), and resulting mixtures each were allowed to stand for 10 min and then diluted with 460 μL of an Opti-MEM medium to obtain plasmid DNA-loaded cationic lipid analog complex particle solutions; a medium for the Hela cells in the plate was removed, then the Hela cells were washed once with PBS, and the complex particle solutions were added in a volume of 125 μL; the cells were cultured for 24 h, then a resulting culture supernatant was discarded, and the cells were fully lysed; and a substrate was added at 50 μl/well, and an expression level of luciferase was detected by a multi-mode microplate reader.

DC 2.4 cells = experiment: Transfection of eGFP-mRNA in DC 2.4 cells (FCM and LSCM); type: cell-based, mouse; conditions: mRNA 0.2 μg/well, material 0.25 to 2 μg/well (dosages per FIG. 7), 24 h
Experimental: In this experiment, with eGFP-mRNA as model mRNA, an mRNA transfection efficiency of a cationic lipid analog material in DC 2.4 cells was detected. A specific operation method was as follows:
DC 2.4 cells were inoculated in a 48-well plate and cultured in an incubator for 12 h; each of different cationic lipid analog materials (0.25 μg/well to 2 μg/well) was mixed with cGFP-expressing mRNA (0.2 μg/well) in 20 μL of a sodium acetate buffer (25 mM, pH 5.2), and resulting mixtures each were allowed to stand for 10 min and then diluted with 230 μL of a Opti-MEM medium to obtain mRNA-loaded complex particle solutions; a medium for the […] were washed once with PBS, and the complex particle solutions were added; and the cells were cultured for 24 h, an mRNA transfection efficiency in cells was observed by FCM and LSCM. A commercial gene transfection reagent Lipofectamine 2000 was adopted as a positive control.

CCCCCCCCCCCCCC(=O)N(CCCN(C)C)C(C(=O)NCCCCCCNC(=O)C(C(C)C)N(CCCN(C)C)C(=O)CCCCCCCCCCCCC)C(C)C (stereo not drawn) [I1R2C14A1]
transfection efficiency of GFP-expressing plasmid DNA, compared with commercial transfection reagent Lipofectamine 2000 (Hela cells [1]): reaches or is higher than | transfection efficiency of GFP-expressing plasmid DNA, compared with commercial transfection reagent Lipofectamine 2000 (Hela cells [1]; listed as 11R2C14A1): equivalent to or higher than | transfection efficiency of luciferase-expressing plasmid DNA, compared with Lipofectamine 2000 (Hela cells [2]): equivalent to or higher than | mRNA transfection efficiency (eGFP-mRNA), compared with Lipofectamine 2000 (DC 2.4 cells; FIG. 7-9): high transfection efficiency | mRNA transfection efficiency (eGFP-mRNA), compared with Lipofectamine 2000 (DC 2.4 cells; FIG. 7-9, listed as 11R2C14A1): equivalent to or higher than

CCCCCCCCCCCCCCCC(=O)N(CCCN(C)C)C(C(=O)NCCCCCCNC(=O)C(C(C)C)N(CCCN(C)C)C(=O)CCCCCCCCCCCCCCC)C(C)C (stereo not drawn) [I1R2C16A1]
mRNA transfection efficiency (eGFP-mRNA), compared with Lipofectamine 2000 (DC 2.4 cells; FIG. 7-9, listed as 11R2C16A1): high transfection efficiency; also recorded: equivalent to or higher than

CCCCCCCC/C=C\CCCCCCCC(=O)N(CCCN(C)C)C(C(=O)NCCCCCCNC(=O)C(C(C)C)N(CCCN(C)C)C(=O)CCCCCCC/C=C\CCCCCCCC)C(C)C (stereo not drawn) [I1R2C18-1A1]
mRNA transfection efficiency (eGFP-mRNA), compared with Lipofectamine 2000 (DC 2.4 cells; FIG. 7-9, listed as 11R2C18-1A1): high transfection efficiency; also recorded: equivalent to or higher than

CCCCC/C=C\C/C=C\CCCCCCCC(=O)N(CCCN(C)C)C(C(=O)NCCCCCCNC(=O)C(C(C)C)N(CCCN(C)C)C(=O)CCCCCCC/C=C\C/C=C\CCCCC)C(C)C (stereo not drawn) [I1R2C18-2A1]
transfection efficiency of GFP-expressing plasmid DNA, compared with commercial transfection reagent Lipofectamine 2000 (Hela cells [1]): reaches or is higher than | transfection efficiency of GFP-expressing plasmid DNA, compared with commercial transfection reagent Lipofectamine 2000 (Hela cells [1]; listed as 11R2C18-2A1): equivalent to or higher than | mRNA transfection efficiency (eGFP-mRNA), compared with Lipofectamine 2000 (DC 2.4 cells; FIG. 7-9): equivalent to or higher than | mRNA transfection efficiency (eGFP-mRNA), compared with Lipofectamine 2000 (DC 2.4 cells; FIG. 7-9, listed as 11R2C18-2A1): high transfection efficiency

CCCCCCCCCCCCCCCCCC(=O)N(CCCN(C)C)C(C(=O)NCCCCCCNC(=O)C(C(C)C)N(CCCN(C)C)C(=O)CCCCCCCCCCCCCCCCC)C(C)C (stereo not drawn) [I1R2C18A1]
mRNA transfection efficiency (eGFP-mRNA), compared with Lipofectamine 2000 (DC 2.4 cells; FIG. 7-9, listed as 11R2C18A1): high transfection efficiency; also recorded: equivalent to or higher than

CCCCCCCCCCCCCC(=O)N(CCC1CCCN1C)C(C(=O)NCCCCCCNC(=O)C(C(C)C)N(CCC1CCCN1C)C(=O)CCCCCCCCCCCCC)C(C)C (stereo not drawn) [I1R11C14A1]
transfection efficiency of GFP-expressing plasmid DNA, compared with commercial transfection reagent Lipofectamine 2000 (Hela cells [1]): reaches or is higher than | transfection efficiency of GFP-expressing plasmid DNA, compared with commercial transfection reagent Lipofectamine 2000 (Hela cells [1]; listed as 11R11C14A1): equivalent to or higher than | transfection efficiency of luciferase-expressing plasmid DNA, compared with Lipofectamine 2000 (Hela cells [2]): equivalent to or higher than | mRNA transfection efficiency (eGFP-mRNA), compared with Lipofectamine 2000 (DC 2.4 cells; FIG. 7-9): high transfection efficiency; also recorded: equivalent to or higher than

CCCCCCCCCCCCCCCC(=O)N(CCC1CCCN1C)C(C(=O)NCCCCCCNC(=O)C(C(C)C)N(CCC1CCCN1C)C(=O)CCCCCCCCCCCCCCC)C(C)C (stereo not drawn) [I1R11C16A1]
mRNA transfection efficiency (eGFP-mRNA), compared with Lipofectamine 2000 (DC 2.4 cells; FIG. 7-9): high transfection efficiency; also recorded: equivalent to or higher than

CCCCCCCCCCCCCCCCCC(=O)N(CCC1CCCN1C)C(C(=O)NCCCCCCNC(=O)C(C(C)C)N(CCC1CCCN1C)C(=O)CCCCCCCCCCCCCCCCC)C(C)C (stereo not drawn) [I1R11C18A1]
mRNA transfection efficiency (eGFP-mRNA), compared with Lipofectamine 2000 (DC 2.4 cells; FIG. 7-9, listed as 11R11C18A1): high transfection efficiency; also recorded: equivalent to or higher than

CCCCCCCCCCCCCC(=O)N(CCN(C)C)C(C(=O)NCCOCCOCCNC(=O)C(C(C)C)N(CCN(C)C)C(=O)CCCCCCCCCCCCC)C(C)C (stereo not drawn) [I2R1C14A1]
transfection efficiency of GFP-expressing plasmid DNA, compared with commercial transfection reagent Lipofectamine 2000 (Hela cells [1]): reaches or is higher than; also recorded: equivalent to or higher than | transfection efficiency of luciferase-expressing plasmid DNA, compared with Lipofectamine 2000 (Hela cells [2]): equivalent to or higher than | mRNA transfection efficiency (eGFP-mRNA), compared with Lipofectamine 2000 (DC 2.4 cells; FIG. 7-9): high transfection efficiency; also recorded: equivalent to or higher than

CCCCCCCCCCCCCCCC(=O)N(CCN(C)C)C(C(=O)NCCOCCOCCNC(=O)C(C(C)C)N(CCN(C)C)C(=O)CCCCCCCCCCCCCCC)C(C)C (stereo not drawn) [I2R1C16A1]
transfection efficiency of GFP-expressing plasmid DNA, compared with commercial transfection reagent Lipofectamine 2000 (Hela cells [1]): reaches or is higher than; also recorded: equivalent to or higher than | transfection efficiency of luciferase-expressing plasmid DNA, compared with Lipofectamine 2000 (Hela cells [2]): equivalent to or higher than | mRNA transfection efficiency (eGFP-mRNA), compared with Lipofectamine 2000 (DC 2.4 cells; FIG. 7-9): high transfection efficiency; also recorded: equivalent to or higher than

CCCCC/C=C\C/C=C\CCCCCCCC(=O)N(CCN(C)C)C(C(=O)NCCOCCOCCNC(=O)C(C(C)C)N(CCN(C)C)C(=O)CCCCCCC/C=C\C/C=C\CCCCC)C(C)C (stereo not drawn) [I2R1C18-2A1]
transfection efficiency of GFP-expressing plasmid DNA, compared with commercial transfection reagent Lipofectamine 2000 (Hela cells [1]): reaches or is higher than; also recorded: equivalent to or higher than

CCCCCCCCCCCCCC(=O)N(CCCN(C)C)C(C(=O)NCCOCCOCCNC(=O)C(C(C)C)N(CCCN(C)C)C(=O)CCCCCCCCCCCCC)C(C)C (stereo not drawn) [I2R2C14A1]
transfection efficiency of GFP-expressing plasmid DNA, compared with commercial transfection reagent Lipofectamine 2000 (Hela cells [1]): reaches or is higher than; also recorded: equivalent to or higher than | mRNA transfection efficiency (eGFP-mRNA), compared with Lipofectamine 2000 (DC 2.4 cells; FIG. 7-9): high transfection efficiency; also recorded: equivalent to or higher than

CCCCCCCCCCCCCC(=O)N(CCCN(CC)CC)C(C(=O)NCCOCCOCCNC(=O)C(C(C)C)N(CCCN(CC)CC)C(=O)CCCCCCCCCCCCC)C(C)C (stereo not drawn) [I2R3C14A1]
mRNA transfection efficiency (eGFP-mRNA), compared with Lipofectamine 2000 (DC 2.4 cells; FIG. 7-9): high transfection efficiency; also recorded: equivalent to or higher than

CCCCCCCCCCCCCC(=O)N(CCC1CCCN1C)C(C(=O)NCCOCCOCCNC(=O)C(C(C)C)N(CCC1CCCN1C)C(=O)CCCCCCCCCCCCC)C(C)C (stereo not drawn) [I2R11C14A1]
transfection efficiency of GFP-expressing plasmid DNA, compared with commercial transfection reagent Lipofectamine 2000 (Hela cells [1]): reaches or is higher than; also recorded: equivalent to or higher than | mRNA transfection efficiency (eGFP-mRNA), compared with Lipofectamine 2000 (DC 2.4 cells; FIG. 7-9): high transfection efficiency; also recorded: equivalent to or higher than

CCCCCCCCCCCCCCCC(=O)N(CCC1CCCN1C)C(C(=O)NCCOCCOCCNC(=O)C(C(C)C)N(CCC1CCCN1C)C(=O)CCCCCCCCCCCCCCC)C(C)C (stereo not drawn) [I2R11C16A1]
transfection efficiency of GFP-expressing plasmid DNA, compared with commercial transfection reagent Lipofectamine 2000 (Hela cells [1]): reaches or is higher than; also recorded: equivalent to or higher than | mRNA transfection efficiency (eGFP-mRNA), compared with Lipofectamine 2000 (DC 2.4 cells; FIG. 7-9): high transfection efficiency; also recorded: equivalent to or higher than

CCCCCCCC/C=C\CCCCCCCC(=O)N(CCC1CCCN1C)C(C(=O)NCCOCCOCCNC(=O)C(C(C)C)N(CCC1CCCN1C)C(=O)CCCCCCC/C=C\CCCCCCCC)C(C)C (stereo not drawn) [I2R11C18-1A1]
transfection efficiency of GFP-expressing plasmid DNA, compared with commercial transfection reagent Lipofectamine 2000 (Hela cells [1]): reaches or is higher than; also recorded: equivalent to or higher than | mRNA transfection efficiency (eGFP-mRNA), compared with Lipofectamine 2000 (DC 2.4 cells; FIG. 7-9): high transfection efficiency; also recorded: equivalent to or higher than

CCCCCCCCCCCCCCCCCC(=O)N(CCC1CCCN1C)C(C(=O)NCCOCCOCCNC(=O)C(C(C)C)N(CCC1CCCN1C)C(=O)CCCCCCCCCCCCCCCCC)C(C)C (stereo not drawn) [I2R11C18A1]
transfection efficiency of GFP-expressing plasmid DNA, compared with commercial transfection reagent Lipofectamine 2000 (Hela cells [1]): reaches or is higher than; also recorded: equivalent to or higher than | mRNA transfection efficiency (eGFP-mRNA), compared with Lipofectamine 2000 (DC 2.4 cells; FIG. 7-9): high transfection efficiency; also recorded: equivalent to or higher than
